Measured values from ChEMBL document CHEMBL1201862, “PubChem BioAssay data set” (2004).
Activity calls are given as the source filed them.

Experiments:
[1] = reduction of Shn3 3'UTR-driven luciferase in osteoblasts – cell-based, Clone20 osteoblasts, firefly luciferase, cherry-picked, dose response (AID 624132); type: functional;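 further: firefly luciferase luminescence from reporter carrying the Shn3 3'UTR in osteoblasts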
Integrin alpha-L = Integrin alpha-L (Mus musculus, UniProt P24063); test: modulators of CD8 T cell-vesicle binding, dose response, powder samples, mouse 2C CD8+ cells (AID 504565); type: functional
[2] = molecular target: 1-acylglycerol-3-phosphate O-acyltransferase ABHD5/Perilipin-5 (Homo sapiens, UniProt Q00G26+Q8WTS1); test: Luminescence-based biochemical high throughput dose response assay for inhibitors of the interaction of the lipase co-activator protein, abhydrolase domain containing 5 (ABHD5) with perilipin-5 (MLDP; PLIN5) (2K validation set). [Related pubchem assays (depositor defined):AID493035, AID493241]
[3] = molecular target: T1, Zinc finger protein mex-5 (Caenorhabditis elegans, UniProt Q9XUB2); test: potency of MEX-5 RNA-binding blockers – biochemical, C. elegans, fluorescence polarization, dose response (AID 1960)
T1 sequence (Q9XUB2 whole entry): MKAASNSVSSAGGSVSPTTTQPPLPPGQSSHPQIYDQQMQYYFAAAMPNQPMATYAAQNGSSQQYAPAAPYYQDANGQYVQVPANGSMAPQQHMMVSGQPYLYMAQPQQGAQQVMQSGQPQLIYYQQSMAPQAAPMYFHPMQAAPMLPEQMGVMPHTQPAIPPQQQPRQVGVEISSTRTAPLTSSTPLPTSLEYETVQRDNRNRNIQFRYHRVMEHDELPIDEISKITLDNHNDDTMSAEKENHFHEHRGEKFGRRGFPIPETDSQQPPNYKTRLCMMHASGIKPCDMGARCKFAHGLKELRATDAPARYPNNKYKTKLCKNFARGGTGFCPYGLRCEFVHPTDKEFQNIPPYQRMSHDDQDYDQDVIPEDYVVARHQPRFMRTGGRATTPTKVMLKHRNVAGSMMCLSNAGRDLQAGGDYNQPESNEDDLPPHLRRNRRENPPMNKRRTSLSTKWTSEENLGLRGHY

[4] = Counterscreen for IDE inhibitors: Luminescence-based cell-based high throughput dose response assay to identify compounds that are cytotoxic to HEK cells. [Related pubchem assays: 434962 (Primary screen (IDE inhibitors in singlicate)), 449730 (Counterscreen (Cytotoxicity in triplicate)), 435028 (Confirmation (IDE inhibitors in triplicate)) …; type: functional; settings: HEK293
[5] = molecular target: T2, RNA-binding protein pos-1 (Caenorhabditis elegans, UniProt G5EF15); test: disruptors of C. elegans POS-1 RNA interaction – biochemical, fluorescence polarization, dose response (AID 1964);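 further: purified POS-1 fused to maltose binding protein made in E. coli; potency of compounds blocking POS-1 binding to fluorescent RNA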
T2 sequence (G5EF15 whole entry): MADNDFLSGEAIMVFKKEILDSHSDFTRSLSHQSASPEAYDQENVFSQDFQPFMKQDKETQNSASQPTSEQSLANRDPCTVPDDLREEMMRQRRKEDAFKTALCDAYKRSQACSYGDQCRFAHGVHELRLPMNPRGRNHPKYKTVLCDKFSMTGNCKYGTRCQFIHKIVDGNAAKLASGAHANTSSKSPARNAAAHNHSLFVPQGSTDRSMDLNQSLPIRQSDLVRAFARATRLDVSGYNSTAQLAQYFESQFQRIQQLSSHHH

Insulin-degrading enzyme = Insulin-degrading enzyme (Homo sapiens, UniProt P14735); test: Dose Response: Fluorescence polarization-based cell-based high throughput dose response assay for inhibitors of insulin-degrading enzyme (IDE). [Related pubchem assays: 434962 (Primary screen (IDE inhibitors in singlicate)), 449730 (Counterscreen (Cytotoxicity in triplicate)), 435028 (Confirmation (IDE inhibitors in triplicate)), 434984 (Summary …; type: functional
Perilipin-1/ABHD5 = Perilipin-1/ABHD5 (Homo sapiens, UniProt O60240+Q8WTS1); test: Luminescence-based biochemical high throughput dose response assay for inhibitors of the interaction of the lipase co-activator protein, abhydrolase domain containing 5 (ABHD5) with perilipin-1 (PLIN1) (2K validation set). [Related pubchem assays (depositor defined):AID493027, AID493057]
[6] = Counterscreen for AddAB inhibitors: absorbance-based bacterial cell-based high throughput dose response assay for inhibitors of bacterial viability. [Related pubchem assays (depositor defined):AID435030, AID449728, AID449731, AID488942, AID488955, AID488956]; type: functional
Ion channel NompC = Ion channel NompC (Danio rerio, UniProt Q7T1G6); test: Dose response cell-based high-throughput screening assay for agonists of the transient receptor potential channel N1 (TRPN1). [Related pubchem assays (depositor defined):AID1424, AID1448]; type: functional
Vero = test: cells; type: functional; settings: Chlorocebus sabaeus
[7] = molecular target: T3, Short transient receptor potential channel 4 (Mus musculus, UniProt Q9QUQ5); test: calcium entry via TRPC4 opening agents – cell-based, HEK293 TRPC4/mu-opioid, Fluo-4 calcium, dose response (AID 434937); type: functional
T3 sequence (Q9QUQ5 whole entry): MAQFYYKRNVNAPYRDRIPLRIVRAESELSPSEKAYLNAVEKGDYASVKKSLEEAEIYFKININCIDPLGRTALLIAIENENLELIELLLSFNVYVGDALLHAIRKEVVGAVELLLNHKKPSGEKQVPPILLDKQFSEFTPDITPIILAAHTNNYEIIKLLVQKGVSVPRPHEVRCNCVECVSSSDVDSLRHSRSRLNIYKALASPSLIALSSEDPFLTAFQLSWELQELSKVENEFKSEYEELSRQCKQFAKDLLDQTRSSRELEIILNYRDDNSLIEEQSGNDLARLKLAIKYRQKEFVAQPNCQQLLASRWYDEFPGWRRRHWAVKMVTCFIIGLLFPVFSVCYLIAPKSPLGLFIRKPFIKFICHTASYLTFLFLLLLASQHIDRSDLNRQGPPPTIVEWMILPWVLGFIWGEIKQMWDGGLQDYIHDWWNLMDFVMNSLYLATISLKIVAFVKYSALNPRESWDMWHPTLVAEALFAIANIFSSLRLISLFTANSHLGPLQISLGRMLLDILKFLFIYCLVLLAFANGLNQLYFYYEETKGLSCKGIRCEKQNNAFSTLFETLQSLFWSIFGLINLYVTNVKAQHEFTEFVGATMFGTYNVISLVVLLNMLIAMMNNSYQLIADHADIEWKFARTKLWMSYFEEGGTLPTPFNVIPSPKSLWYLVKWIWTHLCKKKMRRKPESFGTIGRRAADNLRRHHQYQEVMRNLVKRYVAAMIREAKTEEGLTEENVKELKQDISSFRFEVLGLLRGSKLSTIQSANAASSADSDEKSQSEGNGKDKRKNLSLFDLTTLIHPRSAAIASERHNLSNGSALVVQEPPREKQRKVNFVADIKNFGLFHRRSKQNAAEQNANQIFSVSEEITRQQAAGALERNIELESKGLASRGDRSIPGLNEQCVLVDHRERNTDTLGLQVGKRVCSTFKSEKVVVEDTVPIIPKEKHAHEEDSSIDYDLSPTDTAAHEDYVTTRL

Exodeoxyribonuclease V = Exodeoxyribonuclease V (Escherichia coli (strain K12), UniProt P04993+P07648+P08394); test: RecBCD inhibition via phage-restricted bacterial growth – absorbance, V66 E. coli, mutant T4 phage, counter-screen for AddAB inhibitor project, dose response (AID 492957); type: functional, cell-based, Escherichia coli str. K-12 substr. MG1655
Exodeoxyribonuclease V, sequence (P04993 whole entry): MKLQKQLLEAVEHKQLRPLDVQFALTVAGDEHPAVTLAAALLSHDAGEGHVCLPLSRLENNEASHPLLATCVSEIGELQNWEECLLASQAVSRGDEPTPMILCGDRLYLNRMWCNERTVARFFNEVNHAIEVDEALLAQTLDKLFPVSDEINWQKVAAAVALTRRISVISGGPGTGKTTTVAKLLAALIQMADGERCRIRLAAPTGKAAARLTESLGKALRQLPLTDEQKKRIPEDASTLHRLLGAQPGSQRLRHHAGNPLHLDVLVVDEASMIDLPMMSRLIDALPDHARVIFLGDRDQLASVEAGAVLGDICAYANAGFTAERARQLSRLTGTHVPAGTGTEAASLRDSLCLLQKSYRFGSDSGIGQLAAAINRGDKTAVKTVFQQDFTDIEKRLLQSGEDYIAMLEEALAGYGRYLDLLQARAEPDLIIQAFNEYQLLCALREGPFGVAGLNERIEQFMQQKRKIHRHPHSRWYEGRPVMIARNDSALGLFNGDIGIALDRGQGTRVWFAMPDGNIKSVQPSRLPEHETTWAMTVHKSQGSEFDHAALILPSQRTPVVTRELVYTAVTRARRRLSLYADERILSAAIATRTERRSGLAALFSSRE
Exodeoxyribonuclease V, sequence (P07648 whole entry): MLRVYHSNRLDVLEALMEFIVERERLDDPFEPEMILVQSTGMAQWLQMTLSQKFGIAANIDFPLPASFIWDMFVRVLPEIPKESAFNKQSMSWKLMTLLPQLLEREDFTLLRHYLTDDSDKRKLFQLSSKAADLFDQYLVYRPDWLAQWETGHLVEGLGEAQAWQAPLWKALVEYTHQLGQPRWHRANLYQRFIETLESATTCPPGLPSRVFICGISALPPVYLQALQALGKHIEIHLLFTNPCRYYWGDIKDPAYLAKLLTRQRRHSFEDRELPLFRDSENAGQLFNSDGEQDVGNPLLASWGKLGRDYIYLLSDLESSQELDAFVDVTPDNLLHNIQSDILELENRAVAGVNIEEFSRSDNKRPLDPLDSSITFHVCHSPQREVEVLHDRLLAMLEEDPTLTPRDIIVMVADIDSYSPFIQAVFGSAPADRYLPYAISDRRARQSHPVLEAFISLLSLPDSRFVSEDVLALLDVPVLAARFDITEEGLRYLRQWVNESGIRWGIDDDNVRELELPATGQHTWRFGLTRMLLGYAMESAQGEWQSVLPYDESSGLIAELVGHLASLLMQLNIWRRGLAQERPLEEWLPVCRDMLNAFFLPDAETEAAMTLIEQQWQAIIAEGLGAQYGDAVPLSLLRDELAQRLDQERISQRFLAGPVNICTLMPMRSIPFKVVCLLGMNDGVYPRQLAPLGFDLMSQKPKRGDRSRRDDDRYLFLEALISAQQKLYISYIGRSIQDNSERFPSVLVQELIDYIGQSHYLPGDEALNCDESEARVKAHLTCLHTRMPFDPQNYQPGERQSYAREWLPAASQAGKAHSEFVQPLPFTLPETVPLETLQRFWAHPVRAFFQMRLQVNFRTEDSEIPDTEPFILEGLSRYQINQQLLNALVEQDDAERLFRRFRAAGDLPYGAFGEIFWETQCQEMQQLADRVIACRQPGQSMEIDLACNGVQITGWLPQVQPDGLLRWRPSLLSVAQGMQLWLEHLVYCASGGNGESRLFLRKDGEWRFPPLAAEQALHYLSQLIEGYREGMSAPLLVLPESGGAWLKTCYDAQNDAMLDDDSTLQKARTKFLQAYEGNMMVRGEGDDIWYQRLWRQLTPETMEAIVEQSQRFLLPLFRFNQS
Exodeoxyribonuclease V, sequence (P08394 whole entry): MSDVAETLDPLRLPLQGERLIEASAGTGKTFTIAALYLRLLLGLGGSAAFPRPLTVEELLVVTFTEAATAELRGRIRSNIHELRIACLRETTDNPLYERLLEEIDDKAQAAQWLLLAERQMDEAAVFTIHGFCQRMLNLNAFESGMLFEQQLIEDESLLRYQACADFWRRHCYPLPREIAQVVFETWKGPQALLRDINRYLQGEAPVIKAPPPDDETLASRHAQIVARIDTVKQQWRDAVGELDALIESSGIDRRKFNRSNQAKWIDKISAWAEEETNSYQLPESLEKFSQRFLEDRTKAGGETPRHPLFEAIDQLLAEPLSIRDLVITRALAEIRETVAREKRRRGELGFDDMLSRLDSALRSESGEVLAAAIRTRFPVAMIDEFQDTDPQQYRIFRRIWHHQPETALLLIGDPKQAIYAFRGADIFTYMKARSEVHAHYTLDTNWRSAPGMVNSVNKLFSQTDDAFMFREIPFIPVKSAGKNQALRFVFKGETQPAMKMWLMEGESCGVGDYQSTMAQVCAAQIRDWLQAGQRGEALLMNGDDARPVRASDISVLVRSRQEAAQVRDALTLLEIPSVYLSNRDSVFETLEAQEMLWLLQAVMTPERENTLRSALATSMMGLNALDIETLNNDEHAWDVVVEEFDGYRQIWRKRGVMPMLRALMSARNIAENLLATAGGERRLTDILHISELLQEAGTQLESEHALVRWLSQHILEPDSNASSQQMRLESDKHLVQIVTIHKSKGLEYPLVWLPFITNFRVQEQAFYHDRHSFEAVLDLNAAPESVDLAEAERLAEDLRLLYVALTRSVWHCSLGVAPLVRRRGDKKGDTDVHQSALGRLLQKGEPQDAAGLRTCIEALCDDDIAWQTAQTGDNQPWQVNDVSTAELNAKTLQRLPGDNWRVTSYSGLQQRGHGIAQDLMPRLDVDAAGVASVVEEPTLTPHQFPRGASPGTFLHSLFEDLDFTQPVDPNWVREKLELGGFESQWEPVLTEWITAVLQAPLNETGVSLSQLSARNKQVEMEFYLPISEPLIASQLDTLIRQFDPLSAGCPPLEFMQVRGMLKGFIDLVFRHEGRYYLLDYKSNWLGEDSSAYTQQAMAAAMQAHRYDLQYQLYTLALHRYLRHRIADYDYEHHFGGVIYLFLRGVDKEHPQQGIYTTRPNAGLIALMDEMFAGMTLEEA

[8] = PhoP promoter GFP reporter reduction in Typhimurium – purified and synthesized compounds, set 2, PhoP regulon inhibitor project, dose response (AID 2831); type: functional
Mucolipin-3 = Mucolipin-3 (Homo sapiens, UniProt Q8TDD5); test: Fluorescence counterscreen assay for […] agonists: dose response cell-based high-throughput screening assay to identify agonists of the transient receptor potential channel ML3 (TRPML3). [Related pubchem assays: 1424, 1448 ]; type: functional
Mucolipin-3, sequence (Q8TDD5 whole entry): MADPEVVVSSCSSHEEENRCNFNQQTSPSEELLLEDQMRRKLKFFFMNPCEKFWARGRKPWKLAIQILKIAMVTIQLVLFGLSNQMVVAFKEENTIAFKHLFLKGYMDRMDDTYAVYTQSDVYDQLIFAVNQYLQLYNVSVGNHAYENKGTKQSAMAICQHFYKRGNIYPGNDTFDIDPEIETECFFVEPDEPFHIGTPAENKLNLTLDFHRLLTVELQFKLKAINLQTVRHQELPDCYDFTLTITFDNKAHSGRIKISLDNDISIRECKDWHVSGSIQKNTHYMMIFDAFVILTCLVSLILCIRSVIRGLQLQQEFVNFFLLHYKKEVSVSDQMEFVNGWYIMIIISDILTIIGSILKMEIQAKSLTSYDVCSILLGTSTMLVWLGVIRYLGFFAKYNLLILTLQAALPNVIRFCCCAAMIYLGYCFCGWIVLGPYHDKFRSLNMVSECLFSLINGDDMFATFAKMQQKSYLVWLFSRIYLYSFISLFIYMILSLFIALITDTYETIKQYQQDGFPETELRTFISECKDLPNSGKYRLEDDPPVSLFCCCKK

Coagulation factor XII = molecular target: T4, Coagulation factor XII (Homo sapiens, UniProt P00748); test: activated coagulation factor XII inhibitor potency, concentration-effect curve, cell-free (AID 716); type: functional
T4 sequence (P00748 whole entry): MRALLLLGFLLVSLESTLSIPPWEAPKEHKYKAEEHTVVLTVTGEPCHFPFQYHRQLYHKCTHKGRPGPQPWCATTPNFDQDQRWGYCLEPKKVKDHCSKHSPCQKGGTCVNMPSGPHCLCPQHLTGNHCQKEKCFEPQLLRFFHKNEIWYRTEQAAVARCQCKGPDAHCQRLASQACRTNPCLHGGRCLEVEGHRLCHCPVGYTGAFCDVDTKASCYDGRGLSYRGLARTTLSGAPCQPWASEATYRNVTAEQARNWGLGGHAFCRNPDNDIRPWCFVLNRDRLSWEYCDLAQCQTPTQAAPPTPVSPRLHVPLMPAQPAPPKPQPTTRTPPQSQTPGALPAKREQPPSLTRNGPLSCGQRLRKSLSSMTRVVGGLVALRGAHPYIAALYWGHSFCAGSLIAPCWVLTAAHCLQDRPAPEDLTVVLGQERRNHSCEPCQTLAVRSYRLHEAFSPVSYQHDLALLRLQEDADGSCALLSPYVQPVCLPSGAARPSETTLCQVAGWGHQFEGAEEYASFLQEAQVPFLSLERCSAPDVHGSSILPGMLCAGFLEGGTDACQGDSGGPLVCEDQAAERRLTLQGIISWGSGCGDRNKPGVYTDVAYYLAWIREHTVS

[9] = molecular target: T5, Tyrosine-protein phosphatase non-receptor type 7 (Homo sapiens, UniProt P35236); test: inhibition of hematopoietic tyrosine phosphatase HePTP – biochemical, set 2, SAR follow-up (AID 449736); type: functional
T5 sequence (P35236 whole entry): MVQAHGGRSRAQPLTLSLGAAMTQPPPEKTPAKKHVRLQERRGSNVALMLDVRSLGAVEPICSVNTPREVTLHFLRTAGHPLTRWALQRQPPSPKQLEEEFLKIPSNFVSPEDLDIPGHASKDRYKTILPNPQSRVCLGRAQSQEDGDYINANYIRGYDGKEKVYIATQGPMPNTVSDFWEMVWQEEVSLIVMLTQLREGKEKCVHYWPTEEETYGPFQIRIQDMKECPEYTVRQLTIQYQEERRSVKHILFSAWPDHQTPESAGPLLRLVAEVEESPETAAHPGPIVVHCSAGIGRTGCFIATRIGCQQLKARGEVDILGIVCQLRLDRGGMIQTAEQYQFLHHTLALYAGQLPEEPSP

[10] = molecular target: Delta-type opioid receptor (Homo sapiens, UniProt P41143); test: SAR Analysis of Antagonists of the DOR Receptor using an Image-Based Assay - Set 3. [Related pubchem assays (depositor defined):AID1777, AID1785]; type: functional;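 further: U2OS cells expressing DOR1 and beta-arrestin GFP stimulated with 100 nM SNC80; imaging of GFP-tagged beta-arrestin moving into spots after receptor activation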
Delta-type opioid receptor, sequence (P41143 whole entry): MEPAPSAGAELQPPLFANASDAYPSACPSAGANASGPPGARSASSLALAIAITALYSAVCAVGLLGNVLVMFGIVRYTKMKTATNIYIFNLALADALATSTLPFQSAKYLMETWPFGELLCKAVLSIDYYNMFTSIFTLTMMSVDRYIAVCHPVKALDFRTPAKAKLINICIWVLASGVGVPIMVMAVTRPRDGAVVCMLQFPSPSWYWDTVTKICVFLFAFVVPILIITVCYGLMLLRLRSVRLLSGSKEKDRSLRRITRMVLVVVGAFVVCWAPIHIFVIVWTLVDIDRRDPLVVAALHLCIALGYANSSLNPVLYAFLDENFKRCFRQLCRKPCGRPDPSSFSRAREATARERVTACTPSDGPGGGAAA

Mu-type opioid receptor = Mu-type opioid receptor (Homo sapiens, UniProt P35372); test: SAR Analysis of Antagonists of the MOR Receptor using an Image-Based Assay - Set 3. [Related pubchem assays (depositor defined):AID1777, AID1785, AID1786, AID1966, AID2133, AID2136, AID2284, AID2285, AID2420]; type: functional
Mu-type opioid receptor, sequence (P35372 whole entry): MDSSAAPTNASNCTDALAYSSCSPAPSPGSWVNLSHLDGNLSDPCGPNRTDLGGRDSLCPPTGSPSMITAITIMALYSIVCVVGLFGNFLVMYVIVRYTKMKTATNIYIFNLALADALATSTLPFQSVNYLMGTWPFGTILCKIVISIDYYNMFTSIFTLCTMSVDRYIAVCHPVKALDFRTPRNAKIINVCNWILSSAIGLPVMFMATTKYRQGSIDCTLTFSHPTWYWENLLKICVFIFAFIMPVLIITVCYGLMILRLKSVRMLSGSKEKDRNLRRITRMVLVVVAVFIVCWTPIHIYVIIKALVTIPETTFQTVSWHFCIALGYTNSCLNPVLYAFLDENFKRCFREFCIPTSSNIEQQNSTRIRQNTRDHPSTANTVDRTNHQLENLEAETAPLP

[11] = molecular target: T6, Kappa-type opioid receptor (Homo sapiens, UniProt P41145); test: SAR analysis of small molecule antagonists of the kappa opioid receptor via a luminescent beta-arrestin assay - Set 3. [Related pubchem assays (depositor defined):AID1777, AID1778, AID1785, AID1786, AID1966, AID2133, AID2136, AID2285, AID2495]; type: functional
T6 sequence (P41145 whole entry): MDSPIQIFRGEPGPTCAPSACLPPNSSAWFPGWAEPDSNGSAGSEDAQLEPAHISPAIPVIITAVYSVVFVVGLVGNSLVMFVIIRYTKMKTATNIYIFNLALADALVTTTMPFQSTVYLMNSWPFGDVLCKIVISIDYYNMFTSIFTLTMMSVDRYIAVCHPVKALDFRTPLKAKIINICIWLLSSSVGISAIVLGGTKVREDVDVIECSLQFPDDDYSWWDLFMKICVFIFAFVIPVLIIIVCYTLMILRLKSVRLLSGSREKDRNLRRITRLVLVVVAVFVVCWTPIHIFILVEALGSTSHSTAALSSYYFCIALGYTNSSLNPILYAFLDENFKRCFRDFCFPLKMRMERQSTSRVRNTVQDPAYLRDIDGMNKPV

[12] = molecular target: T6, Kappa-type opioid receptor; test: SAR analysis of Antagonists of the Kappa Opioid Receptor (KOR) using an Image-Based Assay - Set 3. [Related pubchem assays (depositor defined):AID1777, AID1785]; type: functional
[13] = viability of PTEN-deleted HCT116 cells – cell-based, HCT116 PTEN knockout, dose response (AID 1047); type: functional;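 further: HCT116 colon tumor cells with PTEN knocked out; cells exposed to compound for 60 hours before readout; potency for loss of cell viability measured by luminescence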
[14] = molecular target: Alkaline phosphatase, placental type (Homo sapiens, UniProt P05187); test: human placental alkaline phosphatase inhibition – biochemical, luminescence, confirmation (AID 1512); type: functional
[15] = viability of HCT116 lacking mutant beta-catenin – cell-based, human colon tumor, dose response (AID 1045); type: functional;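 further: HCT116 colon tumor cells with beta catenin knocked out; cells exposed to compound for 60 hours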
[16] = molecular target: T7, Alkaline phosphatase, tissue-nonspecific isozyme (Homo sapiens, UniProt P05186); test: potency against alkaline phosphatase TNAP – biochemical, luminescent, dose response, SAR follow-up (AID 1056)
T7 sequence (P05186 whole entry): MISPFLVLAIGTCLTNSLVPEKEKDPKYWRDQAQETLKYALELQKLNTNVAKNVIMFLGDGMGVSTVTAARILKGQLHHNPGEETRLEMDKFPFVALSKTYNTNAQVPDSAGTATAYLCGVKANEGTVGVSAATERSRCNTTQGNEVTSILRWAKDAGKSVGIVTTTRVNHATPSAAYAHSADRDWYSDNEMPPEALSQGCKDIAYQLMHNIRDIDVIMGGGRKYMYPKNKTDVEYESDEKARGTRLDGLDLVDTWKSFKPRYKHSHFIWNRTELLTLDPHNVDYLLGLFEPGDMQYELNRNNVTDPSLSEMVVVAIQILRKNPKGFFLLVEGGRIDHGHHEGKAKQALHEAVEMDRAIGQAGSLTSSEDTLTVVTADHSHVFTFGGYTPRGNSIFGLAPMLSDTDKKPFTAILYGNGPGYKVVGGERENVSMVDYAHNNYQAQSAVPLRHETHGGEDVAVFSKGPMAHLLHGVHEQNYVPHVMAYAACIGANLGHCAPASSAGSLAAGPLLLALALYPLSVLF

CN(CC(=O)Nc1cc(S(=O)(=O)N2CCCC2)ccc1Cl)Cc1ccc2c(c1)OCO2
AC50 [1]: 13.1 µM (active) | EC50 (Integrin alpha-L): 0.197 µM (active)

CS(=O)(=O)Oc1ccc2c(c1)O/C(=C\C=C\c1ccccc1)C2=O
IC50 [2]: 17.6 µM (inactive) | EC50 [3]: 3.83 µM (active) | IC50 [4]: 19.4 µM (not active) | EC50 [5]: 5.46 µM (active) | IC50 (Insulin-degrading enzyme): > 55.9 µM (not active) | IC50 (Perilipin-1/ABHD5): 11 µM (inactive)

O=C(Nc1nnc(-c2cccs2)o1)c1cccc(C(F)(F)F)c1
IC50 [6]: > 39.5 µM (inactive) | EC50 (Ion channel NompC): 3.33 µM (active) | CC50 (Vero): > 25 µM (active) | EC50 [7]: 11.9 µM (active) | IC50 (Exodeoxyribonuclease V): 68.2 µM (inactive) | IC50 [8]: > 125 µM (active) | EC50 (Mucolipin-3): 4.5 µM (active)

COc1ccc(-c2nnc(SCC(=O)Nc3cc(C)on3)n2N)cc1OC
IC50 (Coagulation factor XII): > 50 µM (inactive)

Cc1ccccc1-n1c(N)c(C(=O)N2CCOCC2)sc1=S
IC50 [9]: > 100 µM (inactive)

Cc1ccc(S(=O)(=O)NCc2ccc(C(=O)NCCN3Cc4ccccc4C3)cc2)cc1
IC50 [10]: > 32 µM (inactive) | IC50 (Mu-type opioid receptor): > 32 µM (inactive) | IC50 [11]: > 20 µM (inactive) | IC50 [12]: > 32 µM (inactive)

O=C(NC1(C(F)(F)F)Oc2ccccc2O1)N1CCCC1
EC50 [13]: 15.4 µM (active) | IC50 [14]: 80.9 µM (active) | EC50 [15]: 18 µM (active) | IC50 [16]: > 100 µM (inactive)
